In this test the test system is SU-DHL-4 cells. As to the kind of experiment: Inhibitory effect on cell viability in SU-DHL-4 cell line (Test Example 1). In kind it is cell-based, human. The following applies: SU-DHL-4 cells, 72 hours, Cell Counting Kit-8; concentration showing 90% inhibition of cell viability; read-out: SU-DHL-4 Cell Viability Inhibition Rate IC90. An outline of the steps:
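SU-DHL-4 cells were grown at 37° C. under 5% CO2 in RPMI1640 with 10 vol % heat-inactivated FBS plus penicillin/streptomycin, seeded and precultured for 18 to 25 hours, then exposed to test compound at 0.1 vol % DMSO for 72 hours. Viability was read with Cell Counting Kit-8 by absorbance at 450 nm.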
On the technique in general: Formazan colour is commonly taken as a measure of viable cells.
By IC90 is commonly meant the concentration at which the effect reaches the 90% level. With `CCC(=O)N1c2ccccc2[C@H](Nc2ccc(NC(=O)N3CC(NC(=O)C4CCC(N[C@@H]5C[C@H](C)N(C(=O)CC)c6ccccc65)CC4)C3)cc2)C[C@@H]1C` (stereo partly drawn) [Compound 7a, 3-((1R,4r)-4-(((2S,4R)-2-Methyl-1-propionyl-1,2,3,4-tetrahydroquinolin-4-yl)amino)cyclohexane-1-carboxamide)-N-(4-(((2S,4R)-2-methyl-1-propionyl-1,2,3,4-tetrahydroquinolin-4-yl)amino)phenyl)azetidine-1-carboxamide], the IC90 is 10.8 nM.

With `CCC(=O)N1c2ccccc2[C@H](Nc2ccc(NC(=O)C3CN(C(=O)N[C@H]4CC[C@H](N[C@@H]5C[C@H](C)N(C(=O)CC)c6ccccc65)CC4)C3)cc2)C[C@@H]1C` [Compound 7c, N^1-((1R,4r)-4-(((2S,4R)-2-Methyl-1-propionyl-1,2,3,4-tetrahydroquinolin-4-yl)amino)cyclohexyl)-N^3-(4-(((2S,4R)-2-methyl-1-propionyl-1,2,3,4-tetrahydroquinolin-4-yl)amino)phenyl)azetidine-1,3-dicarboxamide], the IC90 came out at 7 nM.

Turning to `CCC(=O)N1c2ccccc2[C@H](Nc2ccc(NC(=O)COC(=O)N[C@H]3CC[C@H](N[C@@H]4C[C@H](C)N(C(=O)CC)c5ccccc54)CC3)cc2)C[C@@H]1C` [Compound 7f, 2-((4-(((2S,4R)-2-Methyl-1-propionyl-1,2,3,4-tetrahydroquinolin-4-yl)amino)phenyl)amino)-2-oxoethyl ((1R,4R)-4-(((2S,4R)-2-methyl-1-propionyl-1,2,3,4-tetrahydroquinolin-4-yl)amino)cyclohexyl)carbamate], the IC90 is 3.2 nM.

On to `CCC(=O)N1c2ccccc2[C@H](Nc2ccc(NC(=O)c3coc(N[C@H]4CC[C@H](N[C@@H]5C[C@H](C)N(C(=O)CC)c6ccccc65)CC4)n3)cc2)C[C@@H]1C` [Compound 7g, 2-(((1R,4R)-4-(((2S,4R)-2-Methyl-1-propionyl-1,2,3,4-tetrahydroquinolin-4-yl)amino)cyclohexyl)amino)-N-(4-(((2S,4R)-2-methyl-1-propionyl-1,2,3,4-tetrahydroquinolin-4-yl)amino)phenyl)oxazole-4-carboxamide], for which the IC90 came out at 7.56 nM.

Turning to `CCC(=O)N1c2ccccc2[C@H](Nc2ccc(C(=O)NCC3(N[C@H]4CC[C@H](N[C@@H]5C[C@H](C)N(C(=O)CC)c6ccccc65)CC4)COC3)cc2)C[C@@H]1C` [Compound 7j, 4-(((2S,4R)-2-Methyl-1-propionyl-1,2,3,4-tetrahydroquinolin-4-yl)amino)-N-((3-(((1R,4R)-4-(((2S,4R)-2-methyl-1-propionyl-1,2,3,4-tetrahydroquinolin-4-yl)amino)cyclohexyl)amino)oxetan-3-yl)methyl)benzamide], the IC90 is 64 nM.

As for `CCC(=O)N1c2ccccc2[C@H](Nc2ccc(NC(=O)COCC(=O)NC3CCC(N[C@@H]4C[C@H](C)N(C(=O)CC)c5ccccc54)CC3)cc2)C[C@@H]1C` (stereo partly drawn) [Compound 8b, N-((1R,4r)-4-(((2S,4R)-2-Methyl-1-propionyl-1,2,3,4-tetrahydroquinolin-4-yl)amino)cyclohexyl)-2-(2-((4-(((2S,4R)-2-methyl-1-propionyl-1,2,3,4-tetrahydroquinolin-4-yl)amino)phenyl)amino)-2-oxyethoxy)acetamide], the IC90 amounted to 13.9 nM.

Take `CCC(=O)N1c2ccccc2[C@H](Nc2ccc(NC(=O)C3CN(C(=O)[C@H]4CC[C@H](N[C@@H]5C[C@H](C)N(C(=O)CC)c6ccccc65)CC4)C3)cc2)C[C@@H]1C` [Compound 8c, 1-((1R,4R)-4-(((2S,4R)-2-Methyl-1-propionyl-1,2,3,4-tetrahydroquinolin-4-yl)amino)cyclohexane-1-carbonyl)-N-(4-(((2S,4R)-2-methyl-1-propionyl-1,2,3,4-tetrahydroquinolin-4-yl)amino)phenyl)azetidine-3-carboxamide]: the IC90 was determined as 0.26 nM.

In the case of `CCC(=O)N1c2ccccc2[C@H](Nc2ccc(Cn3cc(C(=O)N[C@H]4CC[C@H](N[C@@H]5C[C@H](C)N(C(=O)CC)c6ccccc65)CC4)nn3)cc2)C[C@@H]1C` [Compound 8f, 1-(4-(((2S,4R)-2-Methyl-1-propionyl-1,2,3,4-tetrahydroquinolin-4-yl)amino)benzyl)-N-((1R,4R)-4-(((2S,4R)-2-methyl-1-propionyl-1,2,3,4-tetrahydroquinolin-4-yl)amino)cyclohexyl)-1H-1,2,3-triazole-4-carboxamide], the IC90 amounted to 1.14 nM.

As to `CCC(=O)N1c2ccccc2[C@H](Nc2ccc(C(=O)NCC#CC(=O)NC3CCC(N[C@@H]4C[C@H](C)N(C(=O)CC)c5ccccc54)CC3)cc2)C[C@@H]1C` (stereo partly drawn) [Compound 8m, 4-(((2S,4R)-2-Methyl-1-propionyl-1,2,3,4-tetrahydroquinolin-4-yl)amino)-N-(4-(((1R,4r)-4-(((2S,4R)-2-methyl-1-propionyl-1,2,3,4-tetrahydroquinolin-4-yl)amino)cyclohexyl)amino)-4-oxobut-2-yn-1-yl)benzamide], the IC90 worked out at 0.11 nM.

For the compound `CCC(=O)N1c2ccccc2[C@H](Nc2ccc(C(=O)N3C[C@H]4C[C@@H]3CN4C(=O)[C@H]3CC[C@H](N[C@@H]4C[C@H](C)N(C(=O)CC)c5ccccc54)CC3)cc2)C[C@@H]1C` [Compound 8p, 1-((2S,4R)-2-Methyl-4-(((1R,4R)-4-((1R,4R)-5-(4-(((2S,4R)-2-methyl-1-propionyl-1,2,3,4-tetrahydroquinolin-4-yl)amino)benzoyl)-2,5-diazabicyclo[2.2.1]heptane-2-carbonyl)cyclohexyl)amino)-3,4-dihydroquinolin-1(2H)-yl)propan-1-one], the IC90 was determined as 15 nM.

Take `CCC(=O)N1c2ccccc2[C@H](Nc2ccc(NC(=O)NC3CN(C(=O)C4CCC(N[C@@H]5C[C@H](C)N(C(=O)CC)c6ccccc65)CC4)C3)cc2)C[C@@H]1C` (stereo partly drawn) [Compound 9h, 1-(1-((1R,4r)-4-(((2S,4R)-2-Methyl-1-propionyl-1,2,3,4-tetrahydroquinolin-4-yl)amino)cyclohexane-1-carbonyl)azetidin-3-yl)-3-(4-(((2S,4R)-2-methyl-1-propionyl-1,2,3,4-tetrahydroquinolin-4-yl)amino)phenyl)urea]: the IC90 was 7.16 nM.

As to `CCC(=O)N1c2ccccc2[C@H](Nc2ccc(C(=O)NC3CN(C(=O)c4ccc(C5=N[C@@H](CC(=O)OCCN(C)C)c6nnc(C)n6-c6sc(C)c(C)c65)cc4)C3)cc2)C[C@@H]1C` [Compound 13b, 2-(Dimethylamino)ethyl 2-((S)-2,3,9-trimethyl-4-(4-(3-(4-(((2S,4R)-2-methyl-1-propionyl-1,2,3,4-tetrahydroquinolin-4-yl)amino)benzamide)azetidine-1-carbonyl)phenyl)-6H-thieno[3,2-f][1,2,4]triazolo[4,3-a][1,4]diazepin-6-yl)acetate], the IC90 amounted to 3.5 nM.

Take `CCC(=O)N1c2ccccc2[C@H](Nc2ccc(C(=O)NCCCNC(=O)c3ccc(C4=N[C@@H](CC(=O)OCCN(C)C)c5nnc(C)n5-c5sc(C)c(C)c54)cc3)cc2)C[C@@H]1C` [Compound 13c, 2-(Dimethylamino)ethyl 2-((S)-2,3,9-trimethyl-4-(4-((3-(4-(((2S,4R)-2-methyl-1-propionyl-1,2,3,4-tetrahydroquinolin-4-yl)amino)benzamide)propyl)carbamoyl)phenyl)-6H-thieno[3,2-f][1,2,4]triazolo[4,3-a][1,4]diazepin-6-yl)acetate]: the IC90 worked out at 7.36 nM.

Consider `CCNC(=O)C[C@@H]1N=C(c2ccc(C(=O)NCCCNC(=O)c3ccc(N[C@@H]4C[C@H](C)N(C(=O)CC)c5ccccc54)cc3)cc2)c2c(sc(C)c2C)-n2c(C)nnc21` [Compound 13e, 4-((S)-6-(2-(Ethylamino)-2-oxoethyl)-2,3,9-trimethyl-6H-thieno[3,2-f][1,2,4]triazolo[4,3-a][1,4]diazepin-4-yl)-N-(3-(4-(((2S,4R)-2-methyl-1-propionyl-1,2,3,4-tetrahydroquinolin-4-yl)amino)benzamide)propyl)benzamide], for which the IC90 worked out at 3.33 nM.

`CCC(=O)N1c2ccccc2[C@H](Nc2ccc(C(=O)NCCCNC(=O)c3ccc(C4=N[C@@H](CC(=O)N5CCN(CCO)CC5)c5nnc(C)n5-c5sc(C)c(C)c54)cc3)cc2)C[C@@H]1C` [Compound 13f, 4-((S)-6-(2-(4-(2-Hydroxyethyl)piperazin-1-yl)-2-oxoethyl)-2,3,9-trimethyl-6H-thieno[3,2-f][1,2,4]triazolo[4,3-a][1,4]diazepin-4-yl)-N-(3-(4-(((2S,4R)-2-methyl-1-propionyl-1,2,3,4-tetrahydroquinolin-4-yl)amino)benzamide)propyl)benzamide]: the IC90 was found to be 11.6 nM.

For `CCC(=O)N1c2ccccc2[C@H](Nc2ccc(C(=O)NCCCNC(=O)c3ccc(C4=N[C@@H](CC(=O)OCCO)c5nnc(C)n5-c5sc(C)c(C)c54)cc3)cc2)C[C@@H]1C` [Compound 13g, 2-Hydroxyethyl 2-((S)-2,3,9-trimethyl-4-(4-((3-(4-(((2S,4R)-2-methyl-1-propionyl-1,2,3,4-tetrahydroquinolin-4-yl)amino)benzamide)propyl)carbamoyl)phenyl)-6H-thieno[3,2-f][1,2,4]triazolo[4,3-a][1,4]diazepin-6-yl)acetate], the IC90 worked out at 1.7 nM.

On to `CCC(=O)N1c2ccccc2[C@H](Nc2ccc(C(=O)NC3CCN(C(=O)c4ccc(C5=N[C@@H](CC(=O)OC(C)(C)C)c6nnc(C)n6-c6sc(C)c(C)c65)cc4)CC3)cc2)C[C@@H]1C` [Compound 13j, tert-Butyl 2-((S)-2,3,9-trimethyl-4-(4-(4-(4-(((2S,4R)-2-methyl-1-propionyl-1,2,3,4-tetrahydroquinolin-4-yl)amino)benzamide)piperidine-1-carbonyl)phenyl)-6H-thieno[3,2-f][1,2,4]triazolo[4,3-a][1,4]diazepin-6-yl)acetate], for which the IC90 was 0.31 nM.

With `CCC(=O)N1c2ccccc2[C@H](Nc2ccc(C(=O)NCC(=O)CNC(=O)c3ccc(C4=NCc5nnc(C)n5-c5sc(C)c(C)c54)cc3)cc2)C[C@@H]1C` [Compound 14l, 4-(((2S,4R)-2-Methyl-1-propionyl-1,2,3,4-tetrahydroquinolin-4-yl)amino)-N-(2-oxo-3-(4-(2,3,9-trimethyl-6H-thieno[3,2-f][1,2,4]triazolo[4,3-a][1,4]diazepin-4-yl)benzamide)propyl)benzamide], the IC90 was 0.6 nM.

The values above are taken from patent publication US20220378923A1, “BET DEGRADER” (KYOWA KIRIN CO., LTD., priority 2019, published 2022).
